Reference: patent publication US9051277B2, “Phenyl(oxy/thio)alkanol derivatives” (Bayer Intellectual Property GmbH, priority 2009, dated 2015)

Key:
[1] = tested on: Fusarium proliferatum; test: Production of fumonisin FB1 by Fusarium proliferatum; assay type: cell-based; settings: 120 h, read-out: inhibition of fumonisin FB1 production
[2] = tested on: Aspergillus parasiticus; test: microbe, parasite or virus in culture; assay type: cell-based; settings: 168 h, read-out: inhibition of aflatoxin production
[3] = tested on: Brassica napus (rape); test: Phytoregulatory pre-emergence action, BRSNW; assay type: in vivo; settings: 80 g of a.i./ha, visual assessment after about 3 weeks
From the text: (§1) Seeds of monocotyledonous or dicotyledonous crop plants are placed in wood-fibre pots in sandy loam and covered with soil. The test compounds, formulated in the form of wettable powders (WP), are then, as an aqueous suspension with a water application rate of 600 l/ha (converted), with 0.2% of wetting agent added, applied at various dosages to the surface of the covering soil. After the treatment, the pots are placed in a greenhouse and kept under good growth conditions for the test plants. The visual assessment of the suppression of growth in the test plants is carried out after a trial period of about 3 weeks by comparison with untreated controls (phytoregulatory activity in percent: 100% activity=maximum inhibition of plant growth, 0% activity=plant growth like that of an untreated control.)

[4] = tested on: Triticum aestivum (common wheat); test: Phytoregulatory post-emergence action, TRZAS; assay type: in vivo; settings: 80 g of a.i./ha, visual rating after about 3 weeks
Description: (§2) Seeds of monocotyledonous and dicotyledonous crop plants are placed in sandy loam in wood-fibre pots, covered with soil and cultivated in a greenhouse under good growth conditions. 2 to 3 weeks after sowing, the test plants are treated at the one-leaf stage. The test compounds, formulated as wettable powders (WP), are, with a water application rate of 600 l/ha (converted), with 0.2% of wetting agent added, sprayed at various dosages onto the green parts of the plants. After the test plants have been kept in the greenhouse under optimum growth conditions for about 3 weeks, the activity of the preparations is rated visually in comparison to untreated controls (phytoregulatory activity in percent: 100% activity=maximum inhibition of plant growth, 0% activity=plant growth like that of an untreated control.)

[5] = tested on: Brassica napus (rape); test: Phytoregulatory post-emergence action, BRSNW; assay type: in vivo; settings: 80 g of a.i./ha, visual rating after about 3 weeks
Description: as §2

[6] = tested on: Fusarium graminearum; test: microbe, parasite or virus in culture; assay type: cell-based; settings: 168 h, read-out: inhibition of DON/AcDON production
[7] = tested on: Pyrenophora teres; test: Pyrenophora teres test (barley)/protective; assay type: in vivo; settings: protective, evaluation 8 days after inoculation
Description: [table] To produce a suitable preparation of active compound, 1 part by weight of active compound is mixed with the stated amounts of solvent and emulsifier, and the concentrate is diluted with water to the desired concentration. To test for protective activity, young plants are sprayed with the preparation of active compound at the stated application rate. After the spray coating has dried on, the plants are sprayed with a spore suspension of Pyrenophora teres. The plants remain in an incubation cabin at 20° C. and a relative atmospheric humidity of 100% for 48 hours.

[8] = tested on: Alternaria solani; test: Alternaria test (tomato)/protective; assay type: in vivo; settings: protective, 100 ppm, evaluation 3 days after inoculation
Description: [table] To produce a suitable preparation of active compound, 1 part by weight of active compound is mixed with the stated amounts of solvent and emulsifier, and the concentrate is diluted with water to the desired concentration. To test for protective activity, young plants are sprayed with the preparation of active compound at the stated application rate. After the spray coating has dried on, the plants are inoculated with an aqueous spore suspension of Alternaria solani. The plants are then placed in an incubation cabin at about 20° C. and 100% relative atmospheric humidity.

[9] = tested on: Setaria viridis (green foxtail); test: Phytoregulatory post-emergence action, SETVI; assay type: in vivo; settings: 80 g of a.i./ha, visual rating after about 3 weeks
Description: as §2

[10] = tested on: Oryza sativa (rice); test: Phytoregulatory pre-emergence action, ORYSA; assay type: in vivo; settings: 80 g of a.i./ha, visual assessment after about 3 weeks
From the text: as §1

CC(C)(C)C(O)(CSc1ccc(Br)cc1)c1cncnc1 (stereo not shown) [Compound 13]
inhibition at 50 µM [1]: > 80%

CC(C)(C)C(O)(COc1ccc(Br)cc1)c1cncnc1 (stereo not shown) [Compound 11]
inhibition at 50 µM [2]: > 80% | Inhibition of the growth of useful or harmful plants in % BRSNW [3]: 80% | Inhibition of the growth of useful or harmful plants in % TRZAS [4]: 70% | Inhibition of the growth of useful or harmful plants in % BRSNW [5]: 60% | inhibition at 50 µM [6]: > 80% | Efficacy in % ([7]; application rate 500 ppm): 100% | inhibition at 50 µM [1]: > 80% | Efficacy in % [8]: 99% | Inhibition of the growth of useful or harmful plants in % SETVI [9]: 70% | Inhibition of the growth of useful or harmful plants in % ORYSA [10]: 60%

CC(C)(C)C(O)(COc1ccc(Cl)cc1)Cn1cncn1 (stereo not shown) [EP-A 0 040 345, Example I-1, reference compound]
Efficacy in % ([7]; application rate 1000 ppm): 57% | Efficacy in % [8]: 45%

CC(C)(C)C(O)(COc1ccc(Cl)cc1)c1cncnc1 (stereo not shown) [EP-A 0 028 755, Example 1, reference compound]
Inhibition of the growth of useful or harmful plants in % BRSNW [3]: 70% | Inhibition of the growth of useful or harmful plants in % TRZAS [4]: 50% | Inhibition of the growth of useful or harmful plants in % BRSNW [5]: 60% | Efficacy in % ([7]; application rate 500 ppm): 93% | Efficacy in % [8]: 75% | Inhibition of the growth of useful or harmful plants in % SETVI [9]: 50% | Inhibition of the growth of useful or harmful plants in % ORYSA [10]: 40%

CC(C)C(O)(COc1ccc(Br)cc1)c1cncnc1 (stereo not shown) [Compound 21]
inhibition at 50 µM [6]: > 80% | inhibition at 50 µM [1]: > 80%

CC(C)(C)C(O)(CSc1ccc(I)cc1)Cn1cncn1 (stereo not shown) [Compound 3]
inhibition at 50 µM [6]: > 80% | inhibition at 50 µM [1]: > 80%

CC(C)(C)C(O)(COc1ccc(I)cc1)Cn1cncn1 (stereo not shown) [Compound 1]
inhibition at 50 µM [6]: > 80% | Efficacy in % ([7]; application rate 1000 ppm): 86% | inhibition at 50 µM [1]: > 80% | Efficacy in % [8]: 94%
